Measurements: patent publication US12263156B2, “Use of small molecule inhibitors of the BfrB:Bfd interaction in biofilms” (priority 2020, dated 2025)

Columns and labels:
BfrB (apo-BfrB) = BfrB (apo-BfrB) (Pseudomonas aeruginosa (strain ATCC 15692 / DSM 22644 / CIP 104116 / JCM 14847 / LMG 12228 / 1C / PRS 101 / PAO1), UniProt Q9HY79); assay: Fluorescence polarization measurement of dissociation constant (Kd); format: binding; settings: for Kd: 100 mM potassium phosphate buffer pH 7.6, 1 mM TCEP, 0.5% DMSO, average ± SD
Description: Values were obtained in 100 mM potassium phosphate buffer (pH 7.6) containing 1 mM TCEP and 0.5% DMSO. The initial concentrations of KM-5-25 and KM-5-66 were 5 μM. The Kd values are the average and standard deviation from three independent measurements. […] The IC50 values are the average and the standard derivations from three independent experiments.
Prior to testing the effect that the 4-substituted isoindoline-1,3-dione derivatives might exert on P. aeruginosa cells, the strength of their interaction with BfrB was evaluated in vitro with a fluorescence polarization assay developed based on the intrinsic fluorescence of the isoindoline-1,3-dione moiety.

[1] = tested on: P. aeruginosa PAO1 pellicle cells; assay: Total intracellular iron in biofilm-embedded cells; format: cell-based, Pseudomonas aeruginosa; settings: 24 h; KM-5-25 40 μM, KM-5-66 20 μM
Text: (§1) Recombinant BfrB (BfrBrec) was used as a standard for the electrophoretic mobility of BfrB. The lane corresponding to untreated control was loaded with 0.5× the volume of the lanes loaded with lysates from treated pellicles to account for the ˜2-fold larger number of viable cells in the untreated pellicles. Lanes loaded with treated pellicle lysates show greater accumulation of iron in BfrB relative to untreated cells. […] (A), (C) and (D) show the average of results from 3 biological replicates, p<0.001 is denoted by *** relative to untreated.
(§2) Pellicle biofilms were grown for 48 hours as described above. The pellicles were transferred onto square (2 cm×2 cm) glass coverslips by gently contacting the pellicle with the coverslip. […] Levels of total intracellular iron were determined as reported previously:^23, 86 the cell pellets were treated with 500 μL of freshly prepared digestion reagent (0.6 N HCl, 2.25% (w/v) KMnO4 in water), thoroughly mixed by vortexing, and then incubated at 65° C. for 3.5 hours. […] The iron concentration was measured from the absorbance of the Fe^2+-Ferene S complex (ε593=34.5 mM^−1 cm^−1),^87 normalized by the viable cell counts and reported as Fe atoms per cell. […]

[2] = tested on: EYFP-expressing P. aeruginosa PAO1 biofilms; assay: Flow cell biofilm assay (CLSM imaging, COMSTAT biomass); format: cell-based, Pseudomonas aeruginosa; settings: 3-day old biofilms, 24 h; KM-5-25 40 and 80 μM, KM-5-66 15, 30 and 50 μM
Description: ACS Infect. Dis. […] The experimental shear stress was 0.14-dyn/cm^2 (shear rate=14 s^−1, pressure=7.1 mbar, flow rate=0.4 mL/min) and the switch time was set to 540 s. […] During biofilm growth and challenge with antibacterial, the culture medium in the reservoirs was removed every 12 hours and replaced with fresh pre-warmed medium. […] The biofilms were imaged with the aid of a Leica TCS SP8 confocal microscope (Leica Microsystems, Germany) using a HC PL apo CS2 63×/1.4 oil objective. […] Image stacks were acquired with a z-step size of 0.3 μm at randomly chosen positions. The Leica Application Suite X (LAS-X) software was used for image stack processing.^54 Quantitative analysis of biofilm biomass was performed using the COMSTAT computer program^54 and the Otsu method of automatic thresholding.^85
The treated biofilms were counterstained with the cell impermeable fluorescent nucleic acid dye Sytox Red and then imaged with the aid of confocal laser scanning microscopy (CLSM).

[3] = tested on: iron stored in BfrB in P. aeruginosa PAO1 pellicle cells; assay: Imaging of iron stored in BfrB in biofilm-embedded cells (native PAGE, Ferene S, densitometry); format: cell-based, Pseudomonas aeruginosa; settings: 24 h; KM-5-25 40 μM, KM-5-66 20 μM
Text: as §1, §2

| SMILES | Kd (BfrB (apo-BfrB)) | fold higher binding affinity for BfrB relative to JAG-5-7 (BfrB (apo-BfrB); relative to JAG-5-7) | total intracellular iron normalized to viable cell counts, relative to untreated biofilms [1] | killing of flow cell biofilm cells (CLSM images) [2] | iron in BfrB relative to untreated pellicles (Ferene S band peak areas) [3] | fold decrease of Kd relative to compound 16 (BfrB (apo-BfrB); relative to compound 16) |
| --- | --- | --- | --- | --- | --- | --- |
| O=C1NC(=O)c2c(NCc3cc(Cl)ccc3O)cccc21 [KM-5-25] | 4 ± 0.6 µM | ~2 fold | ~2.5 fold | concentration dependent manner | ~3 fold |  |
| O=C1NC(=O)c2c(NCCCc3cc(O)cc(Cl)c3)cccc21 [KM-5-66] | 0.35 ± 0.05 µM |  | ~2.5 fold | concentration dependent manner | ~3 fold | ~4 fold |
